Results as given in ChEMBL document CHEMBL1151352, “Antifeedant Diterpenes For the Gypsy Moth Larvae From Kalmia latifolia: Isolation and Characterization of Ten Grayanoids” (1980).

How the values were obtained:
Type in all cases: functional
[1] = test system: Lymantria dispar; experiment: Antifeedant activity in gypsy moth ten third-instar larvae at 45 ug/ml relative to control
[2] = test system: Lymantria dispar; experiment: Antifeedant activity in gypsy moth ten third-instar larvae at 32.5 ug/ml relative to control
[3] = test system: Lymantria dispar; experiment: Antifeedant activity in gypsy moth ten third-instar larvae at 2.5 ug/ml relative to control
[4] = test system: Lymantria dispar; experiment: Antifeedant activity in gypsy moth ten third-instar larvae at 30 ug/ml relative to control
[5] = test system: Lymantria dispar; experiment: Antifeedant activity in gypsy moth ten third-instar larvae at 20 ug/ml relative to control
[6] = test system: Lymantria dispar; experiment: Antifeedant activity in gypsy moth ten third-instar larvae at 17.5 ug/ml relative to control
[7] = test system: Lymantria dispar; experiment: Antifeedant activity in gypsy moth ten third-instar larvae at 27 ug/ml relative to control
[8] = test system: Lymantria dispar; experiment: Antifeedant activity in gypsy moth ten third-instar larvae at 60 ug/ml relative to control
[9] = test system: Lymantria dispar; experiment: Antifeedant activity in gypsy moth ten third-instar larvae at 15 ug/ml relative to control
[10] = test system: Lymantria dispar; experiment: Antifeedant activity in gypsy moth ten third-instar larvae at 7.5 ug/ml relative to control

CC(=O)O[C@@H]1[C@@H](O)[C@@]2(O)[C@@H]([C@@H](O)[C@H](O)C2(C)C)[C@](C)(O)[C@@H]2CC[C@@H]3[C@@H](OC(C)=O)[C@]12C[C@@]3(C)O [KALMITOXIN VI]
Activity [1]: 106%

CC1(C)[C@@H](O)C[C@H]2[C@](C)(O)[C@@H]3CC[C@@H]4[C@@H](O)[C@@]3(C[C@@H](O)[C@@]21O)C[C@@]4(C)O [GRAYANOTOXIN III]
Activity [2]: 49%

CC(=O)O[C@@H]1[C@@H](OC(C)=O)[C@@]2(O)[C@@H]([C@@H]3O[C@@H]3C2(C)C)[C@](C)(O)[C@@H]2CC[C@@H]3[C@@H](O)[C@]12C[C@@]3(C)O [KALMITOXIN V]
Activity [3]: 92%

CC(=O)O[C@@H]1[C@@H](O)[C@]23C[C@@](C)(O)[C@H](CC[C@H]2[C@@](C)(O)[C@@H]2[C@@H]4O[C@@H]4C(C)(C)[C@@]12O)[C@H]3O [KALMOTOXIN IV]
Activity [4]: 47%

C=C1[C@@H]2CC[C@@H]3C[C@@]2(C[C@@H](O)[C@@]2(O)[C@H]1C[C@H](O)C2(C)C)C[C@@]3(C)O
Activity [5]: 121%

C=C1[C@@H]2CC[C@@H]3[C@@H](O)[C@]2(C[C@@]3(C)O)[C@H](O)[C@@H](O)[C@@]2(O)[C@H]1C[C@H](O)C2(C)C [KALMITOXIN II]
Activity [6]: 86%

CC(=O)O[C@@H]1[C@@H](O)[C@]23C[C@@](C)(O)[C@H](CC[C@H]2[C@@](C)(O)[C@@H]2C[C@H](O)C(C)(C)[C@@]12O)[C@H]3O [KALMITOXIN III]
Activity [7]: 99%

CC1(C)[C@@H](O)C[C@H]2[C@](C)(O)[C@@H]3CC[C@@H]4[C@@H](O)[C@]3(C[C@@]4(C)O)[C@H](O)[C@@H](O)[C@@]21O [KALMITOXIN I]
Activity [8]: 23%

C=C1[C@@H]2CC[C@@H]3[C@@H](O)[C@@]2(C[C@@H](O)[C@@]2(O)[C@H]1C[C@H](O)C2(C)C)C[C@@]3(C)O
Activity [9]: 65%

CC(=O)O[C@@H]1[C@@H](O)[C@@]23C[C@@H](CC[C@H]2[C@@](C)(O)[C@@H]2[C@@H]4O[C@@H]4C(C)(C)[C@@]12O)[C@](C)(O)C3 [LYONIOL A]
Activity [10]: 95%
